How the values were obtained:
Assay in all cases: relative viability (nuclei count vs DMSO), 5 days (fraction); higher = more cells survive
[1] = compound: COc1cc(N2CCC(N3CCN(C)CC3)CC2)ccc1Nc1ncc(Cl)c(Nc2ccccc2S(=O)(=O)C(C)C)n1 [NVP-TAE684] + NC(=O)Nc1cc(-c2cccc(F)c2)sc1C(=O)N[C@H]1CCCNC1 [AZD7762] (partner 0.2 µM)
In short: (§1)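 Relative viability was taken as the ratio of nuclei in treated wells to nuclei in vehicle wells. Lung cancer cell lines in 1536-well plates received compounds by pin tool one day after seeding, either one drug alone or a fixed anchor-drug dose plus five library-drug doses (not always all listed) in √10 steps. Nuclei were counted on 4× images after 5 days of treatment, and values are medians of duplicate plates.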

[2] = compound: COc1cc(N2CCC(N3CCN(C)CC3)CC2)ccc1Nc1ncc(Cl)c(Nc2ccccc2S(=O)(=O)C(C)C)n1 [NVP-TAE684] + CC(=O)Nc1cccc(-n2c(=O)n(C3CC3)c(=O)c3c(Nc4ccc(I)cc4F)n(C)c(=O)c(C)c32)c1 [Trametinib] (partner 0.02 µM)
In short: as §1

[3] = compound: C#Cc1cccc(Nc2ncnc3cc(OC)c(OCCCCCCC(=O)NO)cc23)c1 [CUDC-101] + Nc1ncn([C@H]2C[C@H](O)[C@@H](CO)O2)c(=O)n1 [Decitabine] (partner 2 µM)
In short: as §1

[4] = compound: COc1cc(N2CCC(N3CCN(C)CC3)CC2)ccc1Nc1ncc(Cl)c(Nc2ccccc2S(=O)(=O)C(C)C)n1 [NVP-TAE684] + O=C(CCCCCCC(=O)Nc1ccccc1)NO [Vorinostat] (partner 1 µM)
In short: as §1

[5] = compound: C1=CC=C2C(=C1)N=C(S2)C(C#N)C3=NC(=NC=C3)NCCC4=CN=CC=C4 + NC(=O)Nc1cc(-c2cccc(F)c2)sc1C(=O)N[C@H]1CCCNC1 [AZD7762] (partner 0.2 µM)
In short: as §1

Cell Line	relative viability ([1]; first compound 0.2 µM)	relative viability ([1]; first compound 0.6325 µM)	relative viability ([1]; first compound 2 µM)	relative viability ([2]; first compound 0.2 µM)	relative viability ([2]; first compound 0.6325 µM)	relative viability ([2]; first compound 2 µM)	relative viability ([3]; first compound 0.01 µM)	relative viability ([3]; first compound 0.03162 µM)	relative viability ([3]; first compound 0.1 µM)	relative viability ([3]; first compound 0.3162 µM)	relative viability ([3]; first compound 1 µM)	relative viability ([4]; first compound 0.2 µM)	relative viability ([4]; first compound 0.6325 µM)	relative viability ([4]; first compound 2 µM)	relative viability ([5]; first compound 0.005 µM)	relative viability ([5]; first compound 0.01581 µM)	relative viability ([5]; first compound 0.05 µM)	relative viability ([5]; first compound 0.1581 µM)	relative viability ([5]; first compound 0.5 µM)
HCC-827	0.193	0.177	0.18	0.478	0.529	0.442	0.309	0.248	0.177	0.149	0.155	0.754	0.762	0.793	0.201	0.176	0.225	0.235	0.19
HOP-62	0.898	0.611	0.525	0.404	0.338	0.377	0.288	0.238	0.224	0.22	0.229	0.566	0.57	0.553	0.271	0.824	0.705	0.542	0.534
IA-LM	–	–	–	–	–	–	–	–	–	–	–	0.66	0.897	0.7	–	–	–	–	–
LC-2-ad	0.808	0.818	0.427	0.881	0.926	0.669	0.872	0.774	0.829	0.717	0.621	0.725	0.665	0.251	0.674	0.847	0.83	0.968	0.692
LCLC-97TM1	0.283	0.2	0.194	0.202	0.219	0.09	0.286	0.24	0.227	0.228	0.191	0.548	0.589	0.157	0.153	0.192	0.342	0.291	0.21
LCLC-103H	0.877	0.771	0.664	0.692	0.693	0.603	0.692	0.695	0.722	0.657	0.633	0.725	0.759	0.653	0.849	0.784	0.804	0.929	0.779
LK-2	0.49	0.268	0.129	–	0.673	0.326	0.262	0.329	0.384	0.2	0.125	0.271	0.219	0.215	0.347	0.41	0.488	0.454	0.445
LOU-NH91	0.782	0.425	0.532	0.783	0.714	0.626	0.804	0.706	0.76	0.807	0.711	0.817	0.8	0.628	0.687	0.758	0.734	0.798	0.724
LU99A	0.342	0.402	0.265	0.579	0.616	0.349	0.824	0.823	0.9	0.831	0.657	0.51	0.465	0.357	0.444	0.469	–	0.343	0.262
LXF-289	0.939	1.11	1.07	0.608	0.7	0.624	0.396	0.418	0.358	0.367	0.301	0.671	0.676	0.723	1.01	1.17	1.06	1.27	0.982
NCI-H23	0.24	0.209	0.151	0.493	0.333	0.208	0.317	0.321	0.346	0.307	0.543	0.844	0.463	0.362	–	0.239	0.254	0.175	0.249
NCI-H520	–	–	–	0.73	0.695	0.204	0.49	0.622	0.478	0.513	0.318	0.776	0.681	0.313	–	–	–	–	–
NCI-H661	–	–	–	0.552	0.616	0.563	0.544	0.497	0.487	0.571	0.307	0.817	0.741	0.445	–	–	–	–	–
NCI-H1650	–	–	–	0.522	0.507	0.221	0.351	0.444	0.469	0.387	0.302	0.573	0.561	0.502	–	–	–	–	–
NCI-H1703	0.0907	0.102	0.0966	–	–	–	–	–	–	–	–	–	–	–	0.118	0.121	0.123	0.109	0.108
NCI-H1792	0.678	0.733	0.394	0.413	0.388	0.271	0.561	0.437	0.602	0.553	0.424	–	–	–	–	0.631	0.8	1.28	0.37
NCI-H2009	–	–	–	0.302	0.234	0.178	0.416	0.372	0.415	0.438	0.351	0.733	0.554	0.495	–	–	–	–	–
NCI-H2023	–	–	–	0.462	0.498	0.155	0.222	0.248	0.188	0.212	0.193	0.646	0.634	0.102	–	–	–	–	–
NCI-H2228	–	–	–	0.312	0.249	0.23	–	–	–	–	–	0.467	0.325	0.142	–	–	–	–	–
SK-LU-1	–	–	–	0.42	0.445	0.383	0.671	0.646	0.677	0.729	0.609	–	0.822	0.487	–	–	–	–	–
SK-MES-1	–	–	–	0.578	0.492	0.378	0.349	0.466	0.332	0.392	0.261	0.977	1.09	0.88	–	–	–	–	–
SW 1573	–	–	–	0.651	0.495	0.21	0.552	0.514	0.489	0.593	0.264	0.745	0.636	0.346	–	–	–	–	–

Reference: the supplement of paper PMC10307832
